{"source": "paper PMC10482914", "about": "“Molecular architecture and electron transfer pathway of the Stn family transhydrogenase” (Nature Communications, 2023)", "key": {"[1]": {"molecular_target": "T1, StnABC complex (FMN / NAD(H) site in StnB) (Sporomusa ovata, UniProt A0A0U1KYM9)", "T1 construct": "gene SpAn4DRAFT_2936; same complex as P1, other site; native purification from S. ovata, untagged; tetramer of StnABC heterotrimers; mildly BS3-crosslinked for cryo-EM; with Electron-bifurcating transhydrogenase subunit StnA (HydC / NuoE-like, thioredoxin-like [2Fe-2S] subunit)", "T1 sequence (A0A0U1KYM9 1-584)": "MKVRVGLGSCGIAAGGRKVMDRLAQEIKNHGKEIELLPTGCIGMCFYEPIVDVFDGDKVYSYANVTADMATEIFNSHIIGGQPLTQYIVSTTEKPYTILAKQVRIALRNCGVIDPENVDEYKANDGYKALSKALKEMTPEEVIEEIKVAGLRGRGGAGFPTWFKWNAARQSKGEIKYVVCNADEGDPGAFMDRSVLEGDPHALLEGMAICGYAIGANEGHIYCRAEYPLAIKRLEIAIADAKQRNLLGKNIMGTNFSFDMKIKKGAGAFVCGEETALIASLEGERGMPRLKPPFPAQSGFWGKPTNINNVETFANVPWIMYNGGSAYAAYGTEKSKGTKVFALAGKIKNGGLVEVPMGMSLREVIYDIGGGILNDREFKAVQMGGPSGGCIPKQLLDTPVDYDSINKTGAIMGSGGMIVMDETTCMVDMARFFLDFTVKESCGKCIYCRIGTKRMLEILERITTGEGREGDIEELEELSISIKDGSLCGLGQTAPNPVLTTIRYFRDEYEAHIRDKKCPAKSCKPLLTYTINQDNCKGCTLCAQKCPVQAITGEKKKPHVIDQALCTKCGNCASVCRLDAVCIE", "T1 sequence (A0A0U1KYW8 1-178 partner)": "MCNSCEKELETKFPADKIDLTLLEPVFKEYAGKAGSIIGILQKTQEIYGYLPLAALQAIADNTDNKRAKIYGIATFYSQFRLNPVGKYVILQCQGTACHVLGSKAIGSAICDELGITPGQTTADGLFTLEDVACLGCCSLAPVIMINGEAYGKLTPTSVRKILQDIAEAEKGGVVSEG", "T1 sequence (A0A0U1KYI6 1-1172 partner)": "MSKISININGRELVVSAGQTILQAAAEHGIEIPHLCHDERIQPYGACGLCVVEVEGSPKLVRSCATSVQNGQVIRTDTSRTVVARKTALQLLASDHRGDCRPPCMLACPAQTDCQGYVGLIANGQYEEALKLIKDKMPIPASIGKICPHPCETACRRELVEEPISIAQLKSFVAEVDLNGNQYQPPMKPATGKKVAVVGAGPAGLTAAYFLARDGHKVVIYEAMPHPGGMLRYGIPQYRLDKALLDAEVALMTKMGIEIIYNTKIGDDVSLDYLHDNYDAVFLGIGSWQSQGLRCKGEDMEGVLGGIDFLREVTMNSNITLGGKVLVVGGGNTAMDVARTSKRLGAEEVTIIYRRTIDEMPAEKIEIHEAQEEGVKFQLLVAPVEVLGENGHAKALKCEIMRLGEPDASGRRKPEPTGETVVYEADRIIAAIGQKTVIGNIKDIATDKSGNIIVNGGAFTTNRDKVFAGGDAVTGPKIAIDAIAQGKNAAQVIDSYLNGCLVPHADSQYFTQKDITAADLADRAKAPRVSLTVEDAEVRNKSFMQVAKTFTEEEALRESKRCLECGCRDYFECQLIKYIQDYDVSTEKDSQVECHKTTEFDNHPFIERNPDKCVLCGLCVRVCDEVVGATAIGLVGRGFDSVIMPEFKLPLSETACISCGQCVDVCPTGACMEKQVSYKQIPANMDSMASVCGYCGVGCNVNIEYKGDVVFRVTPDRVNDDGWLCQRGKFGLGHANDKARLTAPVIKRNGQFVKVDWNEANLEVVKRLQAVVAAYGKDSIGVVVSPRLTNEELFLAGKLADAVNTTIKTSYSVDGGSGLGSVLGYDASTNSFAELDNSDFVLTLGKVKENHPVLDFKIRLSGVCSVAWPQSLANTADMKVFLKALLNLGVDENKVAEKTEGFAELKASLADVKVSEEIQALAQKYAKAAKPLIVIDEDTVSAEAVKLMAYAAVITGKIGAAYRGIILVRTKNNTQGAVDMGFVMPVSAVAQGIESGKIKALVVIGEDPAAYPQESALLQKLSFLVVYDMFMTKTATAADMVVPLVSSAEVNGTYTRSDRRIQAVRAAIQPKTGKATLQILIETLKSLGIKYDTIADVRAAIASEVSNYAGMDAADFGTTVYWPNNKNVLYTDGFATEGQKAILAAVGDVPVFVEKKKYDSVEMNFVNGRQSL", "experiment": "spectrophotometric, […] nm", "format": "biochemical", "details": "0.25 mM NADH, 0.5 mM NADP+, 30 uM reduced ferredoxin; pH 8, 50 C"}, "[2]": {"molecular_target": "T2, StnABC complex (FAD / NADP(H) site in StnC) (Sporomusa ovata, UniProt A0A0U1KYI6)", "T2 construct": "gene SpAn4DRAFT_2937; native purification from S. ovata cytoplasm, untagged; tetramer of StnABC heterotrimers (D2); StnC 1172 amino acids; mildly BS3-crosslinked for cryo-EM; with Electron-bifurcating transhydrogenase subunit StnB (HydB / NuoF-like subunit); Electron-bifurcating transhydrogenase subunit StnA (HydC / NuoE-like, thioredoxin-like [2Fe-2S] subunit)", "T2 sequence (A0A0U1KYI6 1-1172)": "T1 sequence (A0A0U1KYI6 1-1172 partner)", "T2 sequence (A0A0U1KYM9 1-584 partner)": "T1 sequence (A0A0U1KYM9 1-584)", "T2 sequence (A0A0U1KYW8 1-178 partner)": "T1 sequence (A0A0U1KYW8 1-178 partner)", "experiment": "spectrophotometric, […] nm", "format": "biochemical", "details": "0.5 mM NADP+, 0.25 mM NADH, 30 uM reduced ferredoxin; pH 8, 50 C"}, "[3]": {"molecular_target": "StnC subunit of the StnABC transhydrogenase complex from Sporomusa ovata (Sporomusa ovata)", "experiment": "cryo-EM structure; single-particle cryo-EM of the natively purified StnABC complex, mildly cross-linked, anoxic; state S1 without added FMN and substrates (3.2 Å) and state S2 with 10 µM FMN, 500 µM NAD+, 30 µM Fd, 500 µM NADPH (3.0 Å); D2 symmetry"}}, "data": [{"molecule": "NC(=O)C1=CN([C@@H]2O[C@H](COP(=O)(O)OP(=O)(O)OC[C@H]3O[C@@H](n4cnc5c(N)ncnc54)[C@H](O)[C@@H]3O)[C@@H](O)[C@H]2O)C=CC1", "note": "[NADH]", "values": [{"measurement": "spectrophotometric, 340 nm", "setting": "[1]", "value": "catalysed the Fdred and NADH-dependent reduction of NADP^+"}]}, {"molecule": "NC(=O)c1ccc[n+]([C@@H]2O[C@H](COP(=O)(O)OP(=O)(O)OC[C@H]3O[C@@H](n4cnc5c(N)ncnc54)[C@H](OP(=O)(O)O)[C@@H]3O)[C@@H](O)[C@H]2O)c1", "note": "[NADP^+]", "values": [{"measurement": "spectrophotometric, 340 nm", "setting": "[2]", "value": "catalysed the Fdred and NADH-dependent reduction of NADP^+"}]}, {"molecule": "StnC subunit of the StnABC transhydrogenase complex from Sporomusa ovata (natural protein)", "values": [{"measurement": "stoichiometry N", "setting": "[3]", "value": 4}]}]}
